Laboratory results reported in patent US11673898B2, “Substituted inhibitors of menin-MLL and methods of use” (Kura Oncology, Inc., priority 2016, dated 2023).
pIC50: −log10 of the molar value.

Experiments:
MLL-AF9 BMC = experiment: Cell proliferation assay (CellTiter-Glo); type: cell-based
Procedure: Example 9: Cell proliferation assay. The ability of a compound of the present disclosure to inhibit the growth of cells, such as human leukemia cell, acute myeloid leukemia cell, cells with an MLL fusion, control cells without an MLL fusion, VCaP, LNCaP, 22RV1, DU145, LNCaP-AR, MV4; 11, KOPN-8, ML-2, MOLM-13, RS4; 11, SEM, bone marrow cells (BMCs), MLL-AF9, MLL-AF4, MLL-ENL, MLL-CBP, MLL-GAS7, MLL-AF1p, MLL-AF6, HM-2, E2A-HLF, REH, U937, K562, KG-1, HL-60 and NB4 cells, is tested using a cell viability assay, such as the Promega CellTiter-Glo® Luminescent Cell Viability Assay (Promega Technical Bulletin, 2015, “CellTiter-Glo® Luminescent Cell Viability Assay”: 1-15, herein incorporated by reference in its entirety). Cells are plated at relevant concentrations, for example about 1×10^5-2×10^5 cells per well in a 96-well plate. A compound of the present disclosure is added at a concentration up to about 2 μM with eight, 2-fold serial dilutions for each compound. Cells are incubated at 37° C. for a period of time, for example, 72 hours, then cells in the control wells are counted. Media is changed to restore viable cell numbers to the original concentration, and compounds are re-supplied. Proliferation is measured about 72 hours later using Promega CellTiter-Glo® reagents, as per kit instructions.

Menin MLL 4-43 = biological target: T1, Menin MLL 4-43 (Homo sapiens, UniProt O00255); experiment: Fluorescence polarization (FP) competition assay of the menin-MLL interaction; type: binding; details: fluorescence polarization assay; read-out: Menin MLL 4-43 IC50
T1 sequence (O00255 1-610): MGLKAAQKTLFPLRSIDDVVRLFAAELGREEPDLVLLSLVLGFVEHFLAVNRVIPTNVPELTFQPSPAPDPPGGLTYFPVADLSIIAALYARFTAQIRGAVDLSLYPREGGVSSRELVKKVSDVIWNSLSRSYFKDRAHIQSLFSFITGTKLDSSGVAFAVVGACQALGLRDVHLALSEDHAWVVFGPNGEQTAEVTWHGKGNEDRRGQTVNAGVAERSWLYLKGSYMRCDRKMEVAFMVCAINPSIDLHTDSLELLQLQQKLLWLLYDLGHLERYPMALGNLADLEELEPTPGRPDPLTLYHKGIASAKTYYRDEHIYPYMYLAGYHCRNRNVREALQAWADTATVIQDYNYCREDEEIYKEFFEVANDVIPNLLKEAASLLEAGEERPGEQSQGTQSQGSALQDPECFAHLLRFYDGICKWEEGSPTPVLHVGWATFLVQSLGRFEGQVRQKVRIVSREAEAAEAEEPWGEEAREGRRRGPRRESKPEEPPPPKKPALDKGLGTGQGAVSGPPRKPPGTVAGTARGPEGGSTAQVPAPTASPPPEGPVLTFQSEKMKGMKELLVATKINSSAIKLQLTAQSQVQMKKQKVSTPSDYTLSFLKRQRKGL

## Cc1c(CN2CCC(Nc3ncnc4sc(CC(F)(F)F)cc34)CC2)ccc2c1cc(C#N)n2C[C@@H](C)N1CCN(S(C)(=O)=O)CC1 [Compound 9]
MLL-AF9 BMC
  GI50: 0.25 to 1 µM
Menin MLL 4-43
  pIC50: < 6.00

## Cc1c(CN2CCC(Nc3ncnc4sc(CC(F)(F)F)cc34)CC2)ccc2c1cc(C#N)n2C[C@H](C)N1CCN(S(C)(=O)=O)CC1 [Compound 10]
MLL-AF9 BMC
  GI50: 0.01 to 0.05 µM
Menin MLL 4-43
  pIC50: > 7.30

## Cc1c(CN2CCC(Nc3ncnc4sc(CC(F)(F)F)cc34)CC2)ccc2c1cc(C#N)n2CC(C)N1CCN(S(C)(=O)=O)C(C(N)=O)C1 (centres unmarked) [Compound 80]
MLL-AF9 BMC
  GI50: 0.01 to 0.05 µM
Menin MLL 4-43
  pIC50: > 7.30

## CNS(=O)(=O)N1CCN([C@@H](C)Cn2c(C#N)cc3c(C)c(CN4CCC(Nc5nc(N)nc6sc(CC(F)(F)F)cc56)CC4)ccc32)CC1 [Compound 132]
MLL-AF9 BMC
  GI50: < 0.01 µM
Menin MLL 4-43
  pIC50: > 7.30

## Cc1c(CN2CCC(Nc3nc(N)nc4sc(CC(F)(F)F)cc34)CC2)ccc2c1cc(C#N)n2C[C@H](C)N1CCN(S(C)(=O)=O)CC1 [Compound 135]
MLL-AF9 BMC
  GI50: < 0.01 µM
Menin MLL 4-43
  pIC50: > 7.30

## Cc1nc(NC2CCN(Cc3ccc4c(cc(C#N)n4C[C@H](C)N4CCN(S(C)(=O)=O)CC4)c3C)CC2)c2cc(CC(F)(F)F)sc2n1 [Compound 138]
MLL-AF9 BMC
  GI50: 0.01 to 0.05 µM
Menin MLL 4-43
  pIC50: > 7.30

## CNS(=O)(=O)N1CCN([C@@H](C)Cn2c(C#N)cc3c(C)c(CN4CCC(Nc5nc(C)nc6sc(CC(F)(F)F)cc56)CC4)ccc32)CC1 [Compound 139]
MLL-AF9 BMC
  GI50: 0.01 to 0.05 µM
Menin MLL 4-43
  pIC50: > 7.30

## CNc1nc(NC2CCN(Cc3ccc4c(cc(C#N)n4C[C@H](C)N4CCN(S(C)(=O)=O)CC4)c3C)CC2)c2cc(CC(F)(F)F)sc2n1 [Compound 151]
MLL-AF9 BMC
  GI50: < 0.01 µM

## Cc1c(CN2CCC(Nc3ncnc4sc(CC(F)(F)F)cc34)CC2)ccc2c1cc(C#N)n2C[C@H](C)N1CCN(S(C)(=O)=O)[C@H](C(N)=O)C1 [Compound 163]
MLL-AF9 BMC
  GI50: < 0.01 µM
Menin MLL 4-43
  pIC50: > 7.30

## CCc1nc(NC2CCN(Cc3ccc4c(cc(C#N)n4C[C@H](C)N4CCN(S(C)(=O)=O)CC4)c3C)CC2)c2cc(CC(F)(F)F)sc2n1 [Compound 171]
MLL-AF9 BMC
  GI50: 0.01 to 0.05 µM
Menin MLL 4-43
  pIC50: 6.60 to 7.30

## C[C@@H](Cn1c(C#N)cc2cc(CN3CCC(Nc4nc(N)nc5sc(CC(F)(F)F)cc45)CC3)c(O)cc21)N1CCN(S(C)(=O)=O)CC1 [Compound 172]
MLL-AF9 BMC
  GI50: < 0.01 µM
Menin MLL 4-43
  pIC50: > 7.30

## CCNc1nc(NC2CCN(Cc3ccc4c(cc(C#N)n4C[C@H](C)N4CCN(S(C)(=O)=O)CC4)c3C)CC2)c2cc(CC(F)(F)F)sc2n1 [Compound 174]
MLL-AF9 BMC
  GI50: 0.01 to 0.05 µM
Menin MLL 4-43
  pIC50: 6.60 to 7.30

## Cc1c(CN2CCC(Nc3nc(N)nc4sc(CC(F)(F)F)cc34)CC2)ccc2c1cc(C#N)n2C[C@H](C)N1CCN(CC(N)=O)CC1 [Compound 175]
MLL-AF9 BMC
  GI50: 0.01 to 0.05 µM
Menin MLL 4-43
  pIC50: > 7.30

## CNC(=O)CN1CCN([C@@H](C)Cn2c(C#N)cc3c(C)c(CN4CCC(Nc5nc(N)nc6sc(CC(F)(F)F)cc56)CC4)ccc32)CC1 [Compound 176]
MLL-AF9 BMC
  GI50: 0.01 to 0.05 µM
Menin MLL 4-43
  pIC50: > 7.30

## CNS(=O)(=O)N1CCN([C@@H](C)Cn2c(C#N)cc3cc(CN4CCC(Nc5nc(N)nc6sc(CC(F)(F)F)cc56)CC4)c(O)cc32)CC1 [Compound 177]
MLL-AF9 BMC
  GI50: < 0.01 µM
Menin MLL 4-43
  pIC50: > 7.30

## Cc1c(CN2CCC(Nc3nc(N)nc4sc(CC(F)(F)F)cc34)CC2)ccc2c1cc(C#N)n2C[C@H](C)N1CCN(CC(=O)N(C)C)CC1 [Compound 181]
MLL-AF9 BMC
  GI50: 0.01 to 0.05 µM
Menin MLL 4-43
  pIC50: > 7.30

## COc1nc(NC2CCN(Cc3ccc4c(cc(C#N)n4C[C@H](C)N4CCN(S(C)(=O)=O)CC4)c3C)CC2)c2cc(CC(F)(F)F)sc2n1 [Compound 183]
MLL-AF9 BMC
  GI50: < 0.01 µM
Menin MLL 4-43
  pIC50: > 7.30

## CNc1nc(NC2CCN(Cc3ccc4c(cc(C#N)n4C[C@H](C)N4CCC(C)(C#N)CC4)c3C)CC2)c2cc(CC(F)(F)F)sc2n1 [Compound 199]
MLL-AF9 BMC
  GI50: < 0.01 µM
Menin MLL 4-43
  pIC50: 6.60 to 7.30

## CNc1nc(NC2CCN(Cc3ccc4c(cc(C#N)n4C[C@H](C)N4CCS(=O)(=O)CC4)c3C)CC2)c2cc(CC(F)(F)F)sc2n1 [Compound 203]
MLL-AF9 BMC
  GI50: < 0.01 µM
Menin MLL 4-43
  pIC50: > 7.30

## CNS(=O)(=O)N1CCN([C@@H](C)Cn2c(C#N)cc3c(C)c(CN4CCC(Nc5nc(OC)nc6sc(CC(F)(F)F)cc56)CC4)ccc32)CC1 [Compound 205]
MLL-AF9 BMC
  GI50: < 0.01 µM
Menin MLL 4-43
  pIC50: > 7.30

## CNc1nc(NC2CCN(Cc3ccc4c(cc(C#N)n4C[C@H](C)N4CCC(C)(O)CC4)c3C)CC2)c2cc(CC(F)(F)F)sc2n1 [Compound 207]
MLL-AF9 BMC
  GI50: < 0.01 µM
Menin MLL 4-43
  pIC50: > 7.30

## CNS(=O)(=O)C1CCN([C@@H](C)Cn2c(C#N)cc3c(C)c(CN4CCC(Nc5nc(OC)nc6sc(CC(F)(F)F)cc56)CC4)ccc32)CC1 [Compound 214]
MLL-AF9 BMC
  GI50: < 0.01 µM
Menin MLL 4-43
  pIC50: > 7.30

## CNC(=O)C1CN([C@@H](C)Cn2c(C#N)cc3c(C)c(CN4CCC(Nc5nc(NC)nc6sc(CC(F)(F)F)cc56)CC4)ccc32)CCO1 (some centres unmarked) [Compound 217]
MLL-AF9 BMC
  GI50: 0.01 to 0.05 µM
Menin MLL 4-43
  pIC50: > 7.30

## CNc1nc(NC2CCN(Cc3ccc4c(cc(C#N)n4CCN4CCN(S(C)(=O)=O)CC4)c3C)CC2)c2cc(CC(F)(F)F)sc2n1 [Compound 1022]
Menin MLL 4-43
  pIC50: > 7.30

## Cc1nc(NC2CCN(Cc3ccc4c(cc(C#N)n4CCN4CCN(S(C)(=O)=O)CC4)c3C)CC2)c2cc(CC(F)(F)F)sc2n1 [Compound 1023]
Menin MLL 4-43
  pIC50: 6.60 to 7.30

## CNc1nc(NC2CCN(Cc3ccc4c(cc(C#N)n4CCN4CCN(C)C(=O)C4)c3C)CC2)c2cc(CC(F)(F)F)sc2n1 [Compound 1024]
Menin MLL 4-43
  pIC50: > 7.30

## CNc1nc(NC2CCN(Cc3ccc4c(cc(C#N)n4CCN4CCNC(=O)C4)c3C)CC2)c2cc(CC(F)(F)F)sc2n1 [Compound 1025]
Menin MLL 4-43
  pIC50: > 7.30

## Cc1c(CN2CCC(Nc3ncnc4sc(CC(F)(F)F)cc34)CC2)ccc2c1cc(C#N)n2CCNC(=O)COCCOCCNC(=O)OC(C)(C)C [Compound 1027]
Menin MLL 4-43
  pIC50: > 7.30
